According to patent US10034476B2, “Insecticidal phenyl-or pyridyl-piperdine compounds” (Syngenta Participations AG, priority 2008, dated 2018):
Where a name gives a salt, the structure may show the parent alone.

Columns and labels:
Type in all cases: in vivo
[1] = test system: Spodoptera littoralis; assay: Spodoptera littoralis (Egyptian cotton leafworm) cotton leaf disc spray test; conditions: foliar, 72 h, 200 ppm spray on cotton leaf discs, L1 larvae, 3 DAT, mortality, feeding behavior, growth regulation
From the text: Spodoptera littoralis (Egyptian Cotton Leafworm) Cotton leaf discs were placed on agar in a 24-well microtiter plate and sprayed with test solutions at an application rate of 200 ppm. After drying, the leaf discs were infested with 5 L1 larvae. The samples were checked for mortality, feeding behavior, and growth regulation 3 days after treatment (DAT).

[2] = test system: Heliothis virescens; assay: Heliothis virescens (tobacco budworm) egg/artificial diet test; conditions: 96 h, 200 ppm (concentration in well 18 ppm), eggs 0-24 h old on artificial diet, 4 days, egg mortality, larval mortality, growth regulation
Protocol: Heliothis virescens (Tobacco Budworm): Eggs (0-24 h old) were placed in 24-well microtiter plate on artificial diet and treated with test solutions at an application rate of 200 ppm (concentration in well 18 ppm) by pipetting. After an incubation period of 4 days, samples were checked for egg mortality, larval mortality, and growth regulation.

[3] = test system: Plutella xylostella; assay: Plutella xylostella (diamond back moth) artificial diet test; conditions: 144 h, 200 ppm (concentration in well 18 ppm), L2 larvae, 6 days, larval mortality, growth regulation
Protocol: Plutella xylostella (Diamond Back Moth): 24-well microtiter plate (MTP) with artificial diet was treated with test solutions at an application rate of 200 ppm (concentration in well 18 ppm) by pipetting. After drying, the MTP's were infested with L2 larvae (7-12 per well). After an incubation period of 6 days, samples were checked for larval mortality and growth regulation.

[4] = test system: Diabrotica balteata; assay: Diabrotica balteata (corn root worm) artificial diet test; conditions: 120 h, 200 ppm (concentration in well 18 ppm), L2 larvae, 5 days, larval mortality, growth regulation
Protocol: Diabrotica Balteata (Corn Root Worm): A 24-well microtiter plate (MTP) with artificial diet was treated with test solutions at an application rate of 200 ppm (concentration in well 18 ppm) by pipetting. After drying, the MTP's were infested with larvae (L2) (6-10 per well). After an incubation period of 5 days, samples were checked for larval mortality, and growth regulation.

Measured: pest or weed control at 200 ppm

O=C(Nc1cc(F)c(Br)nc1C1CCN(Cc2ccc(-c3ccc(F)cc3)cc2)CC1)c1ccnc(Cl)c1 [Compound C5, N-[6-bromo-5-fluoro-1′-(4′-fluoro-biphenyl-4-ylmethyl)-1′,2′,3′,4′,5′,6′-hexahydro-[2,4′]bipyridinyl-3-yl]-2-chloro-isonicotinamide]
≥ 80%: all assays above

O=C(Nc1ccc(C(F)(F)F)nc1C1CC[N+](O)(Cc2ccc(-c3ccc(F)cc3)cc2)CC1)c1ccnc(Cl)c1 (stereo not shown) [Compound K1, 2-chloro-N-[1′-(4′-fluoro-biphenyl-4-ylmethyl)-1′-oxy-6-trifluoromethyl-1′,2′,3′,4′,5′,6′-hexahydro-[2,4′]bipyridinyl-3-yl]-isonicotinamide 3-hydroxypropyl sulfonate salt]
≥ 80%: all assays above

O=C(Nc1ccc(C(F)(F)F)nc1C1CC[N+]([O-])(Cc2ccc(-c3ccc(F)cc3)cc2)CC1)c1ccnc(Cl)c1 (stereo not shown) [Compound D1, 2-chloro-N-[1′-(4′-fluoro-biphenyl-4-ylmethyl)-1′-oxy-6-trifluoromethyl-1′,2′,3′,4′,5′,6′-hexahydro-[2,4′]bipyridinyl-3-yl]-isonicotinamide]
≥ 80%: all assays above

O=C(Nc1cc(F)c(F)cc1C1CCN(Cc2ccc(-c3ccc(F)cc3)cc2)CC1)c1ccnc(Cl)c1 [Compound A3, 2-chloro-N-{4,5-difluoro-2-[1-(4′-fluoro-biphenyl-4-ylmethyl)-piperidin-4-yl]-phenyl}-isonicotinamide]
≥ 80%: all assays above

O=C(Nc1cc(C(F)(F)F)c(Cl)nc1C1CCN(Cc2ccc(-c3ccc(F)cc3)cc2)CC1)c1ccnc(Cl)c1 [Compound C16]
≥ 80%: all assays above

O=C(Nc1ccc(C(F)F)nc1C1CCN(Cc2ccc(-c3ccc(F)cc3)cc2)CC1)c1ccnc(Cl)c1 [Compound C6]
≥ 80%: all assays above

O=C(Nc1cc(F)c(F)cc1C1CC[N+]([O-])(Cc2ccc(-c3ccc(F)cc3)cc2)CC1)c1ccnc(Cl)c1 (stereo not shown) [Compound B1, 2-chloro-N-{4,5-difluoro-2-[1-(4′-fluoro-biphenyl-4-ylmethyl)-1-oxy-piperidin-4-yl]-phenyl}-isonicotinamide]
≥ 80%: all assays above

O=C(Nc1cc(Cl)c(Cl)nc1C1CCN(Cc2ccc(-c3ccc(F)cc3)cc2)CC1)c1ccnc(Cl)c1 [Compound M1, hydrochloride]
≥ 80%: all assays above

O=C(Nc1cc(Br)c(Cl)nc1C1CCN(Cc2ccc(-c3ccc(F)cc3)cc2)CC1)c1ccnc(Cl)c1 [Compound C24, N-[5-bromo-6-chloro-1′-(4′-fluoro-biphenyl-4-ylmethyl)-1′,2′,3′,4′,5′,6′-hexahydro-[2,4′]bipyridinyl-3-yl]-2-chloro-isonicotinamide]
≥ 80%: all assays above

O=C(Nc1ccc(C(F)(F)F)cc1C1CC[N+](O)(Cc2ccc(-c3ccc(F)cc3)cc2)CC1)c1ccnc(Cl)c1 (stereo not shown) [Compound J1]
≥ 80%: all assays above

O=C(Nc1ccc(C(F)(F)F)nc1C1CCN(Cc2ccc(-c3ccc(F)cc3)cc2)CC1)c1ccnc(Cl)c1 [Compound M4]
≥ 80%: all assays above

Cc1cc(NC(=O)c2ccnc(Cl)c2)c(C2CCN(Cc3ccc(-c4ccc(F)cc4)cc3)CC2)nc1Cl [Compound C26, 2-chloro-N-[6-chloro-1′-(4′-fluoro-biphenyl-4-ylmethyl)-5-methyl-1′,2′,3′,4′,5′,6′-hexahydro-[2,4′]bipyridinyl-3-yl]-isonicotinamide]
≥ 80%: all assays above

O=C(Nc1cc(F)c(F)nc1C1CCN(Cc2ccc(-c3ccc(F)cc3)cc2)CC1)c1ccnc(Cl)c1 [Compound C25, 2-chloro-N-{1′-(4′-fluoro-biphenyl-4-ylmethyl)-5,6-difluoro-1′,2′,3′,4′,5′,6′-hexahydro-[2,4′]bipyridinyl-3-yl}-isonicotinamide]
≥ 80%: all assays above

O=C(Nc1cc(Cl)c(OCC(F)(F)F)nc1C1CCN(Cc2ccc(-c3ccc(F)cc3)cc2)CC1)c1ccnc(Cl)c1 [Compound C9, 2-chloro-N-[5-chloro-1′-(4′-fluoro-biphenyl-4-ylmethyl)-6-(2,2,2-trifluoro-ethoxy)-1′,2′,3′,4′,5′,6′-hexahydro-[2,4′]bipyridinyl-3-yl]-isonicotinamide]
≥ 80%: all assays above

O=C(Nc1cc(F)c(Cl)nc1C1CCN(Cc2ccc(-c3ccc(F)cc3)cc2)CC1)c1ccnc(Cl)c1 [Compound C17, 2-chloro-N-[6-chloro-5-fluoro-1′-(4′-fluoro-biphenyl-4-ylmethyl)-1′,2′,3′,4′,5′,6′-hexahydro-[2,4′]bipyridinyl-3-yl]-isonicotinamide]
≥ 80%: all assays above

O=C(Nc1ccc(OC(F)F)nc1C1CCN(Cc2ccc(-c3ccc(F)cc3)cc2)CC1)c1ccnc(Cl)c1 [Compound C40, 2-chloro-N-{1′-(4′-fluoro-biphenyl-4-ylmethyl)-6-difluoromethoxy-1′,2′,3′,4′,5′,6′-hexahydro-[2,4′]bipyridinyl-3-yl}-isonicotinamide]
≥ 80%: all assays above
